# Laboratory results taken from patent US10000474B2, “Histone deacetylase inhibitors and uses thereof” (MUSC FOUNDATION FOR RESEARCH DEVELOPMENT, priority 2014, dated 2018).
# Structures can show the parent of a compound that is named as a salt.
# Columns and labels:
# Format in all cases: biochemical
# Settings in all cases: test concentration not given; average of triplicate
# Recombinant human HDAC7 = biological target: T1, Recombinant human HDAC7 (Homo sapiens, UniProt Q8WUI4); test: HDAC inhibitory assay, HDAC7 (Boc-Lys(Tfa)-AMC substrate)
# T1 construct: purchased Millipore
# T1 sequence (Q8WUI4 1-952): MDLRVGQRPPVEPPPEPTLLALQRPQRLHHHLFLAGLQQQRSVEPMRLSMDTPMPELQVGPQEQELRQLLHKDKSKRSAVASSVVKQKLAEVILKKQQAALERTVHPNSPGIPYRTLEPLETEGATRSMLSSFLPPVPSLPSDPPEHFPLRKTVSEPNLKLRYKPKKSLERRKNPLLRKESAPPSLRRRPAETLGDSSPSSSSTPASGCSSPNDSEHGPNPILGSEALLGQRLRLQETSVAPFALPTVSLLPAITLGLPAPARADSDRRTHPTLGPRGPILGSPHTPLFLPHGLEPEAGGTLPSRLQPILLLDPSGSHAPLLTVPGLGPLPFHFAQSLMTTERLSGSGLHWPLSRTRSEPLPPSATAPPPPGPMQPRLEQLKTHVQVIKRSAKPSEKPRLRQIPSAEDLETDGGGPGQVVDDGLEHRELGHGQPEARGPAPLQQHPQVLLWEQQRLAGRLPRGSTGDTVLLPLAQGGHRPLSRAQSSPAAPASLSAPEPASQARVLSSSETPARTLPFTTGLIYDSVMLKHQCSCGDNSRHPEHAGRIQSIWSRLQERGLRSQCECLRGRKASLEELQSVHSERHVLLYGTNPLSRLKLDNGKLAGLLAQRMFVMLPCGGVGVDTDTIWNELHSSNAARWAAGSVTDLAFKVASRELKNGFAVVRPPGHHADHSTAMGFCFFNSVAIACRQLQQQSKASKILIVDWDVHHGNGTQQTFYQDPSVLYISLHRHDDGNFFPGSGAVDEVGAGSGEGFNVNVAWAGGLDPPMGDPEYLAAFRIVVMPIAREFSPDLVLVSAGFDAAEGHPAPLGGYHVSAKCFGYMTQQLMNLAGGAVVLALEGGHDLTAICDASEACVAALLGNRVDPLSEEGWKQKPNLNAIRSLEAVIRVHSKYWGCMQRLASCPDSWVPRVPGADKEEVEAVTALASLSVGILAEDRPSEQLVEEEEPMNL
# Procedure: (§1) The compounds of Examples 1-12 and 14-16 were evaluated for their ability to act as inhibitors of human HDAC. The compound of Example 13 was not tested. Recombinant human HDAC1, HDAC2, HDAC3/NcoR2, HDAC5, HDAC6, HDAC8, HDAC9, HDAC10 and HDAC11 were purchased from BPS Biosciences. Recombinant human HDAC4 and HDAC7 were purchased from Millipore. The substrate Boc-Lys(Ac)-AMC and Boc-Lys(Tfa)-AMC were purchased from Bachem. The substrate Ac-RHK(Ac)K(Ac)-AMC was purchased from Enzo Life Sciences. Due to the different specific activities of each isoform, different amount of enzyme was used in each isoform screening assay. In these assays, trichostatin A (TSA), suberanilohydroxamic acid and diphenylacetohydroxamic acid (DPAHA) were employed as positive controls. All determinations were carried out in triplicate, and reported values were the average of these determinations, which in no case varied by more than 5%.
# (§2) For evaluating the inhibition of class IIa HDACs (HDAC4, HDAC5, HDAC7 and HDAC9) and class IV HDAC (HDAC11), 10 μl of test samples were first incubated with 1 ng HDAC4 (specific activity=15400 pmol/min/μg), 5 ng HDAC5 (specific activity=2521 pmol/min/μg), 1 ng HDAC7 (specific activity=26340 pmol/min/μg), 5 ng HDAC9 (specific activity=3000 pmol/min/μg), and 500 ng HDAC11 (specific activity=1.8 pmol/min/μg) respectively. Then 25 μl of the Boc-Lys(Tfa)-AMC substrate (50 μM final concentration) was added and incubated at 37° C. for 30-60 min, and followed by adding 50 μl of developer. The last step was to read the samples in a SpectraMax M5 plate reader (Molecular Devices) at an excitation wavelength of 360 nm and an emission wavelength of 460 nm.
# Recombinant human HDAC11 = biological target: T2, Recombinant human HDAC11 (Homo sapiens, UniProt Q96DB2); test: HDAC inhibitory assay, HDAC11 (Boc-Lys(Tfa)-AMC substrate)
# T2 construct: purchased BPS Biosciences
# T2 sequence (Q96DB2 1-347): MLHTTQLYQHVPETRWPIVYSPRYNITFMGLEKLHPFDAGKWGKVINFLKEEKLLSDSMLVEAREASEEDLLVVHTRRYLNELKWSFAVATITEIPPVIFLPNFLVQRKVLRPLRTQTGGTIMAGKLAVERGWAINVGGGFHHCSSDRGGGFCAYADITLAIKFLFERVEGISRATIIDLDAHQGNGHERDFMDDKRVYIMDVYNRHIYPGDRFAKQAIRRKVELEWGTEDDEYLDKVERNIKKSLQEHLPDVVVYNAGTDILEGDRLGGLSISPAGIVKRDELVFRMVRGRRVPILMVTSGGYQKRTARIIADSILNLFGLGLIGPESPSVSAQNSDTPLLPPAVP
# Procedure: as §1, §2
# Recombinant human HDAC2 = biological target: T3, Recombinant human HDAC2 (Homo sapiens, UniProt Q92769); test: HDAC inhibitory assay, HDAC2 (Boc-Lys(Ac)-AMC substrate)
# T3 construct: purchased BPS Biosciences
# T3 sequence (Q92769 whole entry): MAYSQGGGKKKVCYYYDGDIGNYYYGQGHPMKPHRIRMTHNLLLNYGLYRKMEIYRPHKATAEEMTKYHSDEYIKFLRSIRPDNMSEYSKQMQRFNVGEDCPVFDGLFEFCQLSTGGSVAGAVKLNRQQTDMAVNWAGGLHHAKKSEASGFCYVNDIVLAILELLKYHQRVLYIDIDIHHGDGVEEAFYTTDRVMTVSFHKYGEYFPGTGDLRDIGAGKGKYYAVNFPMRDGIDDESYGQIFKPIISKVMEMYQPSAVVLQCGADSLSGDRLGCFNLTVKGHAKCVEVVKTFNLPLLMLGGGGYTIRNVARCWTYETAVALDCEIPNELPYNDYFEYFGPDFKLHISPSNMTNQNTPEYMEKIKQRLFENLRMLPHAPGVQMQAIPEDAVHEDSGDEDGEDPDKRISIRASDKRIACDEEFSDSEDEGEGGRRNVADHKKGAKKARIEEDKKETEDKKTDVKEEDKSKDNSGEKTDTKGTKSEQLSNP
# Procedure: as §1
# (§3) Then 25 μl of the Boc-Lys(Ac)-AMC substrate (50 μM final concentration) was added and incubated at 37° C. for 30-60 min, and followed by adding 50 μl of developer (1 mg/ml trypsin and 1 μM TSA). The last step was reading the samples in a SpectraMax M5 plate reader (Molecular Devices) at an excitation wavelength of 360 nm and an emission wavelength of 460 nm.
# Recombinant human HDAC9 = biological target: T4, Recombinant human HDAC9 (Homo sapiens, UniProt Q9UKV0); test: HDAC inhibitory assay, HDAC9 (Boc-Lys(Tfa)-AMC substrate)
# T4 construct: purchased BPS Biosciences
# T4 sequence (Q9UKV0 whole entry): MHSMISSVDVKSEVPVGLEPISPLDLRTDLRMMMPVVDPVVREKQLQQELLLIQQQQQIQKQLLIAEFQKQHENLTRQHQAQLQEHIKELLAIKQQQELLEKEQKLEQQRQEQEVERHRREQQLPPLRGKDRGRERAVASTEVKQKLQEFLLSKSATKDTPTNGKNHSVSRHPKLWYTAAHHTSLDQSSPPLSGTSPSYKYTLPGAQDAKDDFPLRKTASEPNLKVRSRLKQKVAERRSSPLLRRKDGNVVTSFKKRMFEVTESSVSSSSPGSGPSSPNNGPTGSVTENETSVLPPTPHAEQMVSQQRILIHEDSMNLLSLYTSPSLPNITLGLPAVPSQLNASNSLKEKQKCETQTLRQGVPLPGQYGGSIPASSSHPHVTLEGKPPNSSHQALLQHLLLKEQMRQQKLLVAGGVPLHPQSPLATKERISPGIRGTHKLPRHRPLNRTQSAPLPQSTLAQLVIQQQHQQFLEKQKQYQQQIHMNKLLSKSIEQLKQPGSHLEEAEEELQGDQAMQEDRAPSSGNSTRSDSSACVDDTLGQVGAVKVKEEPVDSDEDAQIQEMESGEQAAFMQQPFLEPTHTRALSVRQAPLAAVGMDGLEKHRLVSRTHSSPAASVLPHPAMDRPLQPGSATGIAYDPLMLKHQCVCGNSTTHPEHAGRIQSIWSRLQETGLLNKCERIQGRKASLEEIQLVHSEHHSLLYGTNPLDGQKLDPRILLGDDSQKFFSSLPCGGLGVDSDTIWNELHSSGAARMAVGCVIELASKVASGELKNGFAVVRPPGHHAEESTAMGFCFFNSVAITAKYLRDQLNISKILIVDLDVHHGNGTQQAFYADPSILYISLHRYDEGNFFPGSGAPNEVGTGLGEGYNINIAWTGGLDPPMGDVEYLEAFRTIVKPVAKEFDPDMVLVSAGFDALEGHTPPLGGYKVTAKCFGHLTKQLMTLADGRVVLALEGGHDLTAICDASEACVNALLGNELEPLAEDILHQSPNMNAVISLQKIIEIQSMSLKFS
# Procedure: as §1, §2
# Recombinant human HDAC1 = biological target: T5, Recombinant human HDAC1 (Homo sapiens, UniProt Q13547); test: HDAC inhibitory assay, HDAC1 (Boc-Lys(Ac)-AMC substrate)
# T5 construct: purchased BPS Biosciences
# T5 sequence (Q13547 whole entry): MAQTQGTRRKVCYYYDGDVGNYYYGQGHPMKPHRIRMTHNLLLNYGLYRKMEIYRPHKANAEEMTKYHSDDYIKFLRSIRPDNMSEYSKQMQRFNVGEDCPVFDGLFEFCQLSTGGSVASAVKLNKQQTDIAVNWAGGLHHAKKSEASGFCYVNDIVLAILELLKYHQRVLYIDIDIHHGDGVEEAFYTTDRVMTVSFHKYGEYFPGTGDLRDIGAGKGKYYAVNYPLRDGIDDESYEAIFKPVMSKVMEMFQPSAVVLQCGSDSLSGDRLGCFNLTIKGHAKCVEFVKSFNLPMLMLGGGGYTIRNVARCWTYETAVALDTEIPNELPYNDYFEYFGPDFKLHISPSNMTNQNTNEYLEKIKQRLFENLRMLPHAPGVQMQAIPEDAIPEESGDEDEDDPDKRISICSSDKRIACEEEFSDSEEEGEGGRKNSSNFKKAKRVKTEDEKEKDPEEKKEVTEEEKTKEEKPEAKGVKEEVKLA
# Procedure: as §1, §3
# [1] = biological target: T6, Recombinant human HDAC3/NcoR2 (Homo sapiens, UniProt O15379); test: HDAC inhibitory assay, HDAC3 (Boc-Lys(Ac)-AMC substrate)
# T6 construct: purchased BPS Biosciences
# T6 sequence (O15379 whole entry): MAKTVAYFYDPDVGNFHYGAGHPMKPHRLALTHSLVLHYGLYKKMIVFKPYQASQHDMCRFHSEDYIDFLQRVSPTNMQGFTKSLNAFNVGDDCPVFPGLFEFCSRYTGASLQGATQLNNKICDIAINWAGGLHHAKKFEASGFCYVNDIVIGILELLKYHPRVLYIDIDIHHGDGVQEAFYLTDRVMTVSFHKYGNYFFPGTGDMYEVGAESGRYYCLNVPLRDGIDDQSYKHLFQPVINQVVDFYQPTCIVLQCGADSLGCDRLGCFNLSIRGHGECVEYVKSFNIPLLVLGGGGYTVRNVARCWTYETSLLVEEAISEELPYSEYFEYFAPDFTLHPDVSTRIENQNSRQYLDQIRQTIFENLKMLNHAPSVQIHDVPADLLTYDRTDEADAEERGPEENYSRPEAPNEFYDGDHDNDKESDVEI
# T6 sequence (Q9Y618 395-489 partner limits assumed): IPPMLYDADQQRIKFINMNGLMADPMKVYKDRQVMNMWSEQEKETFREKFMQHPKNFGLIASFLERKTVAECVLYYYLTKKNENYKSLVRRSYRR
# Procedure: as §1, §3
HDAC 7 inhibitory activity (Recombinant human HDAC7) [%],HDAC 11 inhibitory activity (Recombinant human HDAC11) [%],HDAC 2 inhibitory activity (Recombinant human HDAC2) [%],HDAC 9 inhibitory activity (Recombinant human HDAC9) [%],HDAC 1 inhibitory activity (Recombinant human HDAC1) [%],HDAC 3 inhibitory activity [1] [%],Structure (SMILES)
1.3,21.8,29.5,20.5,62.5,22.5,"O=C(Nc1ccccc1)c1coc(-c2ccccc2O)n1 [Example 1, 2-(2-Hydroxyphenyl)-N-phenyloxazole-4-carboxamide]"
9.2,23.1,54.1,33.3,68.0,37.8,"O=C(NC(c1ccccc1)c1ccccc1)c1coc(-c2ccccc2O)n1 [Example 2, N-Benzhydryl-2-(2-hydroxyphenyl)oxazole-4-carboxamide]"
4.1,39.5,34.8,21.6,43.9,23.7,"O=C(NCC(c1ccccc1)c1ccccc1)c1coc(-c2ccccc2O)n1 [Example 3, N-(2,2-Diphenylethyl)-2-(2-hydroxyphenyl)oxazole-4-carboxamide]"
0.7,45.2,28.7,28.2,35.9,37.5,"O=C(NCCC(c1ccccc1)c1ccccc1)c1coc(-c2ccccc2O)n1 [Example 4, N-(3,3-Diphenylpropyl)-2-(2-hydroxyphenyl)oxazole-4-carboxamide]"
19.4,28.4,31.9,32.4,62.2,30.2,"O=C(Nc1ccc(-c2ccccc2)cc1)c1coc(-c2ccccc2O)n1 [Example 5, N-([1,1′-Biphenyl]-4-yl)-2-(2-hydroxyphenyl)oxazole-4-carboxamide]"
1.4,47.8,52.2,20.8,61.4,40.1,"O=C(NCc1ccc(-c2ccccc2)cc1)c1coc(-c2ccccc2O)n1 [Example 6, N-([1,1′-Biphenyl]-4-ylmethyl)-2-(2-hydroxyphenyl)oxazole-4-carboxamide]"
3.8,49.9,45.2,15.5,47.8,32.3,"O=C(NCc1cccc2ccccc12)c1coc(-c2ccccc2O)n1 [Example 7, 2-(2-Hydroxyphenyl)-N-(naphthalen-1-ylmethyl)oxazole-4-carboxamide]"
3.8,26.0,36.0,18.4,41.7,18.9,"O=C(NCCc1c[nH]c2ccccc12)c1coc(-c2ccccc2O)n1 [Example 8, N-(2-(1H-Indol-3-yl)ethyl)-2-(2-hydroxyphenyl)oxazole-4-carboxamide]"
1.1,33.8,25.4,16.4,35.2,11.0,"O=C(NCCCCN1C(=O)c2ccccc2C1=O)c1coc(-c2ccccc2O)n1 [Example 9, N-(4-(1,3-Dioxoisoindolin-2-yl)butyl)-2-(2-hydroxyphenyl)oxazole-4-carboxamide]"
2.2,30.1,0,9.0,27.2,4.0,"O=C(NCCCCNC(=O)C(c1ccccc1)c1ccccc1)c1coc(-c2ccccc2O)n1 [Example 10, N-(4-(2,2-Diphenylacetamido)butyl)-2-(2-hydroxyphenyl)oxazole-4-carboxamide]"
21.9,69.9,1.3,70.2,43.3,3.7,"O=C(NCCCCNC(=S)NCCC(c1ccccc1)c1ccccc1)c1coc(-c2ccccc2O)n1 [Example 11, N-(4-(3-(3,3-Diphenylpropyl)thioureido)butyl)-2-(2-hydroxyphenyl)oxazole-4-carboxamide]"
0,39.1,19.7,16.4,32.2,18.1,"O=C(NCCCCNCCC(c1ccccc1)c1ccccc1)c1coc(-c2ccccc2O)n1 [Example 12, N-(4-((3,3-Diphenylpropyl)amino)butyl)-2-(2-hydroxyphenyl)oxazole-4-carboxamide hydrochloride]"
9.3,49.2,56.5,26.3,70.1,39.7,"O=C(O)c1ccc(CNC(=O)c2coc(-c3ccccc3O)n2)cc1 [Example 14, 4-((2-(2-Hydroxyphenyl)oxazole-4-carboxamido)methyl)benzoic acid]"
9.9,20.1,41.3,24.3,47,15.8,"O=C(Nc1ccccc1)c1ccc(CNC(=O)c2coc(-c3ccccc3O)n2)cc1 [Example 15, 2-(2-Hydroxyphenyl)-N-(4-(phenylcarbamoyl)benzyl)oxazole-4-carboxamide]"
